“And” between values parts separate entries of the source, which are not always exact repeats. Equal entries are not always repeated.
Assays:
[1] = In vitro ^23Na-NMR, two-compartment coaxial cylinder tube (^23Na shiftability); type: physicochemical
Text: The goal of these studies was to separate the total Na^+ signal (Na^+T) into distinct signals for blood (Na^+b), interstitial (Na^+e), and intracellular (Na^+i) pools (FIG. 1). The shifting mechanism induced by exogenous TmDOTP^5− and endogenous biological factors on the ^23Na chemical shift in vitro is depicted in FIGS. 1C-1G. A two-compartment coaxial cylinder NMR tube setup in vitro was used to mimic Na^+ in interstitial/intracellular pools. The inner (smaller) and outer (larger) compartments both contained 150 mM NaCl while the latter also contained TmDOTP^5− at various concentrations. The setup was subjected to several different pH and temperature conditions. The inner compartment, which lacked TmDOTP^5− to represent the intracellular space in vivo, produced a small but unshifted ^23Na peak at 0 ppm. The larger ^23Na peak was shifted downfield by TmDOTP^5−, with the difference in peak integrals stemming from different compartment volumes.
The ^23Na shiftability for TmDOTP^5− s[paraCA^n−]=[…] was 11.1×larger than the shiftability for pH (spH=0.25 ppm/pH unit) and 92.3×larger than the shiftability for temperature (sT=0.03 ppm/° C.). This means that addition of 1.1 mM TmDOTP^5− would induce a ˜3 ppm shift in the ^23Na peak. Conversely, a maximal change of 0.4 in pH units, which is observed between normal and tumor tissues, would induce only a ˜0.1 ppm ^23Na shift. A similar ^23Na shift by temperature would require a 3.3° C. change, which is unlikely in vivo. Based on the pH and temperature ranges observed in vivo (including tumors), the effect from [TmDOTP^5−] dominates the ^23Na chemical shift by 95%. Therefore, [TmDOTP^5−] is several orders of magnitude more sensitive in shifting the ^23Na resonance than typical in vivo factors. Furthermore, the ^23Na shiftability arising from [TmDOTP^5−] and pH/temperature effects is much larger than T2 broadening from TmDOTP^5− (FIG. 1C). […] (FIGS. 1D-1E). However, for in vivo scenarios the ranges shown for pH (2 full pH units) and temperature (15° C. interval) are overestimated, and where [Na^+] far exceeds [TmDOTP^5−] based on prior experiments. In blood and interstitial spaces, [Na^+] is ˜30-100×greater than [TmDOTP^5−].
In vitro experiments were performed using a 2-compartment coaxial cylindrical 7-inch NMR tube setup from WilmadLabGlass (Vineland, NJ, USA). One compartment contained 150 mM NaCl and the other contained the same but with varying amounts of TmDOTP^5− (1-10 mM) and 10% v/v ^2H2O to lock the spectrometer frequency using the ^2H2O signal. NaCl and ^2H2O were purchased from Sigma-Aldrich (St. Louis, MO, USA), and TmDOTP^5− was purchased as the sodium salt Na5TmDOTP from Macrocyclics (Plano, TX, USA). The 5-mm opening of the NMR tube permitted an insert (the inner compartment) whose 50-mm-long tip had inner and outer diameters of 1.258 and 2.020 mm, respectively. The outer-to-inner volume ratio between the two compartments was 8.6. The geometry of the setup allowed 645 μL total in the outer compartment to fill around the tip. Each solution was pH-adjusted using HCl or KOH to give 5 different pH values.
^23Na-NMR spectra were collected on a Bruker Avance III HD 500 MHz vertical-bore spectrometer (Bruker, Billerica, MA, USA) interfaced with Bruker TopSpin v2.1 software. A Bruker 500 MHz TBO liquid broadband probe with z-gradient was used in all frequencies, and an inner coil was used to detect X-nuclei. A single ^23Na square pulse (50 μs) was used to globally excite the volume of interest (repetition time TR=275 ms) collecting 2048 free induction decay (FID) points in the time domain with an acquisition time taq=38.9 ms, averaged 4096 times. Each set of scans was repeated at a series of temperatures: 27, 30, 34, 37, and 40° C. Spectra were analyzed using 10 Hz line broadening (for improved delineation of major peaks and reduction of baseline noise) and manual zeroth- and first-order phasing. […]

[2] = doses presently being used for preclinical studies; cited from earlier work

O=P([O-])([O-])CN1CCN(CP(=O)([O-])[O-])CCN(CP(=O)([O-])[O-])CCN(CP(=O)([O-])[O-])CC1.[Na+].[Na+].[Na+].[Na+].[Na+].[Tm+3] [TmDOTP^5−, sodium thulium (III) 1,4,7,10-tetraazacyclododecane-1,4,7,10-tetrakis(methylenephosphonate)]
^23Na shifts caused by in vivo agent concentrations ([1]; 1-2 mM TmDOTP^5−): 2.8-5.5 ppm | shift in the ^23Na peak induced by addition of agent ([1]; addition of 1.1 mM TmDOTP^5−): ~3 ppm | ^23Na shiftability for pH (spH) ([1]; in vitro, 150 mM NaCl with TmDOTP^5−): 0.25 ppm/pH unit | ^23Na shiftability for temperature (sT) ([1]; in vitro, 150 mM NaCl with TmDOTP^5−, 27-40° C.): 0.03 ppm/° C. | ^23Na shift variation caused by pH ([1]; maximal change of 0.4 pH units between normal and tumor tissue): ~0.1 ppm | shiftability for TmDOTP^5− relative to shiftability for pH ([1]; ratio): 11.1 × | shiftability for TmDOTP^5− relative to shiftability for temperature ([1]; ratio): 92.3 × | ^23Na shift variation caused by temperature ([1]; temperature difference ~0.5° C.): 0.015 ppm | share of the ^23Na chemical shift dominated by [TmDOTP^5−] effect ([1]; versus pH and temperature ranges observed in vivo): 95% and 96-98% | toxicity [2]: non-toxic

— US12569170B2, “Paramagnetic sodium NMR macrocyclic-based biosensors, and associated methods” (Yale University, priority 2021, dated 2026)
